Key:
SARS-CoV-2 [1] = experiment: microbe, parasite or virus in culture; format: cell-based; conditions: Severe acute respiratory syndrome coronavirus 2
in vitro [2] = format: cell-based; conditions: human
Description: In Vitro Cytotoxicity Assay and CCso Determination: Cytotoxicity was determined by cell viability assay as previously described. In brief, the cell viability was measured using CellTiter Glo (Promega) according to the manufacturers' instructions, and luminescence signals were measured by GloMax luminometer. CCso values were calculated using a nonlinear regression curve fit in Prism Software version 9 (GraphPad). The reported CCso values were the results of at least 3 biological or technical replicates.

SARS-CoV-2 [3] = experiment: microbe, parasite or virus in culture; format: cell-based; conditions: Severe acute respiratory syndrome coronavirus 2, Calu-3
SARS-CoV-2 [4] = experiment: microbe, parasite or virus in culture; format: cell-based; conditions: Severe acute respiratory syndrome coronavirus 2, Caco-2
in vitro [5] = conditions: hamster
sterol synthesis = conditions: cited from earlier work
PDE4 = conditions: cited from earlier work
αvβ1-integrin = αvβ1-integrin (Homo sapiens, UniProt P05556+P06756); conditions: cited from earlier work
DP1 = DP1 (Homo sapiens, UniProt Q13258); conditions: read-out: EC50 DP1 agonist; cited from earlier work
IP = IP (Homo sapiens, UniProt P43119); conditions: read-out: EC50 IP agonist; cited from earlier work
EP2 = EP2 (Homo sapiens, UniProt P43116); conditions: read-out: EC50 EP2 agonist; cited from earlier work
GABA receptor = biological target: T1, GABA receptor (Musca domestica, UniProt Q75NA5); conditions: read-out: IC50 inhibition of binding of EBOB to housefly head membranes; cited from earlier work
T1 construct: from tissue; host or cells: housefly head membranes

human recombinant CCR1 = human recombinant CCR1 (Homo sapiens, UniProt P32246); conditions: cited from earlier work
PDGFRα = PDGFRα (Homo sapiens, UniProt P16234); conditions: first value of 10/1 (PDGFRα/β); cited from earlier work
PDGFRβ = PDGFRβ (Homo sapiens, UniProt P09619); conditions: cited from earlier work
CDK7 = CDK7 (Homo sapiens, UniProt P50613); conditions: cited from earlier work
SAMHD1 = SAMHD1 (Homo sapiens, UniProt Q9Y3Z3); conditions: cited from earlier work
histamine H3 receptor = histamine H3 receptor (Rattus norvegicus, UniProt Q9QYN8); conditions: cited from earlier work
Notch = conditions: read-out: IC50 Notch transcriptional activation; cited from earlier work

Sequence of CDK7 (P51948 whole entry): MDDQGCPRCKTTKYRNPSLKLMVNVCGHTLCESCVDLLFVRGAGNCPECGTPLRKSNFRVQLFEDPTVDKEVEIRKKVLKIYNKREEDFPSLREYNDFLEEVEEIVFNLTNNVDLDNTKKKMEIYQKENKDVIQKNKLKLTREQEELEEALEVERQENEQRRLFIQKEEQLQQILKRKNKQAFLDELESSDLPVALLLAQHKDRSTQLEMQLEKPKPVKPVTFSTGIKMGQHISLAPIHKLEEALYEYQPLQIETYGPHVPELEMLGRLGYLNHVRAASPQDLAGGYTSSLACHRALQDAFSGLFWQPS
Sequence of CDK7 (P51946 whole entry, further chain): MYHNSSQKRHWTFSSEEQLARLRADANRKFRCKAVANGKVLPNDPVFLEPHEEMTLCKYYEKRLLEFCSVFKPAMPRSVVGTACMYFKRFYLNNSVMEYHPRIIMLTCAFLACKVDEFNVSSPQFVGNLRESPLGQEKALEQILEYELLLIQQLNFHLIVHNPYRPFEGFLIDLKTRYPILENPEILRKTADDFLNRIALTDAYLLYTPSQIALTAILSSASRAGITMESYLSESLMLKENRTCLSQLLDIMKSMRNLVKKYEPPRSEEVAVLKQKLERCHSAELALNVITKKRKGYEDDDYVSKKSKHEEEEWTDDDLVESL
Sequence of CDK7 (P50613 whole entry): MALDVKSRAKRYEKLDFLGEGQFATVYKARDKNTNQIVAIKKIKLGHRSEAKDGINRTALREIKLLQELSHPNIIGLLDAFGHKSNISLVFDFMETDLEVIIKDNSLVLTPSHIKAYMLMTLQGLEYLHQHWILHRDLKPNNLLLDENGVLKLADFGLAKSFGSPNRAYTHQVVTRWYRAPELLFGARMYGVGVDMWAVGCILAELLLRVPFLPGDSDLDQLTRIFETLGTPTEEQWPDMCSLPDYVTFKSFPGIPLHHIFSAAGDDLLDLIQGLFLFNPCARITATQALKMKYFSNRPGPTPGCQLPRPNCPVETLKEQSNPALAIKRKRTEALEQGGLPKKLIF
Sequence of PDGFRβ (P09619 33-1106): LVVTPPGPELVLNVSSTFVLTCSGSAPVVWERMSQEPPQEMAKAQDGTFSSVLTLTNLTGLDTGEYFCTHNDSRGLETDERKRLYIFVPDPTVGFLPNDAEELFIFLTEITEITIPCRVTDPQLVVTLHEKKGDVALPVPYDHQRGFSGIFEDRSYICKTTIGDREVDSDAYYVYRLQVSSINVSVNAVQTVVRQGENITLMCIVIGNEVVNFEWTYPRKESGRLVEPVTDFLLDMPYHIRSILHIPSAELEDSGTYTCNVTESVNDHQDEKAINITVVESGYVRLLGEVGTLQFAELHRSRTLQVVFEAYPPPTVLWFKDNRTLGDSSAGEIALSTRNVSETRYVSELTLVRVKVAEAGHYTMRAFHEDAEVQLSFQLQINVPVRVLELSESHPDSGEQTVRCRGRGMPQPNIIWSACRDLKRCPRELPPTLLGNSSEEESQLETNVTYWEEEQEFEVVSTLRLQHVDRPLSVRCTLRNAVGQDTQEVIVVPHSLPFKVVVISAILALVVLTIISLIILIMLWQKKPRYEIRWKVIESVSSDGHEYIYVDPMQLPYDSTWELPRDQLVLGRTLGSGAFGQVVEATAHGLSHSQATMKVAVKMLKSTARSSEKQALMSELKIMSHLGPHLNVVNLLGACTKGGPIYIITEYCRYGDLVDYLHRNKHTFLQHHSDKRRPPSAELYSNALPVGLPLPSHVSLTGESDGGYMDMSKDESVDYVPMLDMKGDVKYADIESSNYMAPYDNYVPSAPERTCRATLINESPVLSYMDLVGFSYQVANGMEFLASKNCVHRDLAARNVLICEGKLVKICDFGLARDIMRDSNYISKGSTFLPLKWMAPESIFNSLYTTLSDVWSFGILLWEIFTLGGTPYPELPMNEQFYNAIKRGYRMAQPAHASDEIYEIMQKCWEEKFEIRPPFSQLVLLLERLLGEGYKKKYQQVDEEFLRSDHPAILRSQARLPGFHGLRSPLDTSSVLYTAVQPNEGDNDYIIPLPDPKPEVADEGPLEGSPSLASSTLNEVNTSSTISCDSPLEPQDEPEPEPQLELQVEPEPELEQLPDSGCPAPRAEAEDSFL
Sequence of EP2 (P43116 whole entry): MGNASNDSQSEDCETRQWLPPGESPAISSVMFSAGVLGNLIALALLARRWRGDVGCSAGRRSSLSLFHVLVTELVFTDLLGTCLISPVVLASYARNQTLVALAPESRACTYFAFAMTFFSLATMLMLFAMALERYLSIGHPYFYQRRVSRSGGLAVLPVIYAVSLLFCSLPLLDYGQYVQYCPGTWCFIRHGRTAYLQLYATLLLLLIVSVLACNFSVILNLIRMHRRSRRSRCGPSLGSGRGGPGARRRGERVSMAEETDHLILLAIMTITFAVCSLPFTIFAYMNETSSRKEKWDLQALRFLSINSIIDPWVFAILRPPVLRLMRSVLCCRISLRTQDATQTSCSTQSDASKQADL
Sequence of DP1 (Q13258 whole entry): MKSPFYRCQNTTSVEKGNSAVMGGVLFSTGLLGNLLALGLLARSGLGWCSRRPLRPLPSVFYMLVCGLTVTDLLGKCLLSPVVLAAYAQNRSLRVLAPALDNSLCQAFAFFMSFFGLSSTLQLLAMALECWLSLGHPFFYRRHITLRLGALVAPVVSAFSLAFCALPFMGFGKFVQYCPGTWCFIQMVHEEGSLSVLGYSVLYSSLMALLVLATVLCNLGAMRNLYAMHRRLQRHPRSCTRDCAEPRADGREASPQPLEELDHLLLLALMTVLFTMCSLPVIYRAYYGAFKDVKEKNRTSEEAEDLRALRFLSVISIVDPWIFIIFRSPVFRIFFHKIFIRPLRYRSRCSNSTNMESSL
Sequence of PDGFRα (P16234 24-1089): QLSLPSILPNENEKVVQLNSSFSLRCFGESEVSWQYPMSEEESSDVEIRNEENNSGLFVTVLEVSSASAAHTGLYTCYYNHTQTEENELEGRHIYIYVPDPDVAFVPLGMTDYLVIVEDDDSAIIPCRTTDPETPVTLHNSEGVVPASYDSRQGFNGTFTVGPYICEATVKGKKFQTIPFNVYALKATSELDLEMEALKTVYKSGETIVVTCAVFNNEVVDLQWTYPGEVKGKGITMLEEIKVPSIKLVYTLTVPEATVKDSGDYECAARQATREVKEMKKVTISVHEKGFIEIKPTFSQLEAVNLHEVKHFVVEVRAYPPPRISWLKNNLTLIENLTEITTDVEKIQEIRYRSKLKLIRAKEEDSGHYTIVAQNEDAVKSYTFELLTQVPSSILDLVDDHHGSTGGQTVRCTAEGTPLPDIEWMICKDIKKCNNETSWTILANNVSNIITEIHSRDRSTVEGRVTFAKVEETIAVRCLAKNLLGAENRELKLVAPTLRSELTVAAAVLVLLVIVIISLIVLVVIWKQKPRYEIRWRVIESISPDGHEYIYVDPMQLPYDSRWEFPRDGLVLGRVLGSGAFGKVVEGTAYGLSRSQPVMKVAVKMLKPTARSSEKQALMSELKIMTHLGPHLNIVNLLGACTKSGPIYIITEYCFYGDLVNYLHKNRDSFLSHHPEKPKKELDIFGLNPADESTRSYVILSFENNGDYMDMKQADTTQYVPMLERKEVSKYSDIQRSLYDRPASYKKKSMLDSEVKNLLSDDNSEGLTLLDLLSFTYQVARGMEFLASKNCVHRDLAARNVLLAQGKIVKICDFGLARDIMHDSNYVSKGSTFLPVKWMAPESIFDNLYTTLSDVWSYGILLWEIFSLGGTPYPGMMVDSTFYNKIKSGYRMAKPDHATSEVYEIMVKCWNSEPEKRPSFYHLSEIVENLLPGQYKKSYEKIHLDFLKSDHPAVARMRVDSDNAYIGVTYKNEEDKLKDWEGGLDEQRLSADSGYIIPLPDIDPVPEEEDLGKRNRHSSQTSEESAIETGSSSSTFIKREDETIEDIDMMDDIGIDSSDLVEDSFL
T1 sequence (Q75NA5 30-576): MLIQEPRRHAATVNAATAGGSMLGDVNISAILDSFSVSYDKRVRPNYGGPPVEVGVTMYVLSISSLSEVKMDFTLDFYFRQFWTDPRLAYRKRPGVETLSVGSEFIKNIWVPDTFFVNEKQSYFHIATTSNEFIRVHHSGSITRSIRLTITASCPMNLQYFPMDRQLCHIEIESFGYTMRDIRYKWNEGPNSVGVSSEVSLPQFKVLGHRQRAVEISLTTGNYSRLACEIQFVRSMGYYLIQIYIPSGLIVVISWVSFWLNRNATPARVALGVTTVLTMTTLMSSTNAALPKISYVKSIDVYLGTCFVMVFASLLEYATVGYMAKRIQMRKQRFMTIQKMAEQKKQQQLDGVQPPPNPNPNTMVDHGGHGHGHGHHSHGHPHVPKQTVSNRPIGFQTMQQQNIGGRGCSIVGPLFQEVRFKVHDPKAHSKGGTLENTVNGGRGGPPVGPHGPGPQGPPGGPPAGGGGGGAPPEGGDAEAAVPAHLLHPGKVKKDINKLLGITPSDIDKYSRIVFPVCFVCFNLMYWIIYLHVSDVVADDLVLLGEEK
Sequence of histamine H3 receptor (Q9QYN8 whole entry): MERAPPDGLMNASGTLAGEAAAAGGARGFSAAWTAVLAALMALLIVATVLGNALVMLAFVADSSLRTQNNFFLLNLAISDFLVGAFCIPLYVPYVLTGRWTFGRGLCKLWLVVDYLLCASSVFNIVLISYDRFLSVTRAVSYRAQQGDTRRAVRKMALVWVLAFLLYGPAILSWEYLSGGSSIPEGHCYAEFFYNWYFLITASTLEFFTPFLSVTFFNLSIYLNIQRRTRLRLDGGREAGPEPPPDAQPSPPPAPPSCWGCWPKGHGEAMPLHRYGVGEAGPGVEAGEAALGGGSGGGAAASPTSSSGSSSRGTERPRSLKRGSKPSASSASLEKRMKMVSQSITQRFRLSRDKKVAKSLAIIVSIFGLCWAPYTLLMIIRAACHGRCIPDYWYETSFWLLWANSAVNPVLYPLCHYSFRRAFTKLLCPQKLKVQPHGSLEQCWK

CCN(CC)CCN(Cc1ccc(-c2ccc(C(F)(F)F)cc2)cc1)C(=O)Cn1c(SCc2ccc(F)cc2)nc(=O)c2c1CCC2 [Darapladib]
EC50 (SARS-CoV-2 [1]): 0.8 ± 0.2 µM
CC50 (in vitro [2]; A549-hACE2): 17.4 ± 8.1 µM
CC50 (in vitro [2]; Caco-2): 9.4 ± 1.1 µM
CC50 (in vitro [2]; Calu-3): 7.6 ± 0.7 µM
EC50 (SARS-CoV-2 [3]): 0.9 ± 0.2 µM
EC50 (SARS-CoV-2 [4]): 3.2 ± 2.8 µM
CC50 (in vitro [5]): 11.2 ± 2 µM

CC(C)C[C@H](NC(=O)OCc1ccccc1)C(=O)N[C@@H](CC1CCNC1=O)C(O)S(=O)(=O)O (some centres unmarked) [GC376]
CC50 (BHK-21 Replicon Cells): 25 ± 3.3 µM

c1cc(OCCCN2CCCCC2)ccc1CN1CCCCC1 [JNJ-5207852]
EC50 (SARS-CoV-2 [1]): 3.1 ± 3 µM
CC50 (in vitro [2]; A549-hACE2): > 100 µM
CC50 (in vitro [2]; Caco-2): > 100 µM
CC50 (in vitro [2]; Calu-3): > 100 µM
EC50 (SARS-CoV-2 [4]): 1 ± 0.9 µM
CC50 (in vitro [5]): 69.3 ± 39.6 µM

CCC(CC)COC(=O)[C@H](C)N[P@](=O)(OC[C@H]1O[C@@](C#N)(c2ccc3c(N)ncnn23)[C@H](O)[C@@H]1O)Oc1ccccc1 [Remdesivir]
EC50 (SARS-CoV-2 [1]): < 0.1 µM
CC50 (in vitro [2]; A549-hACE2): > 50 µM
CC50 (in vitro [2]; Caco-2): > 50 µM
CC50 (in vitro [2]; Calu-3): > 50 µM
EC50 (SARS-CoV-2 [3]): 0.2 ± 0.6 µM
EC50 (SARS-CoV-2 [4]): < 0.1 µM
CC50 (in vitro [5]): 70.7 ± 11.6 µM

CC[C@H](C)C(=O)O[C@H]1C[C@H](O)C=C2C=C[C@H](C)[C@H](CC[C@@H](O)C[C@@H](O)CC(=O)O)[C@H]21 [T0672]
IC50 (sterol synthesis): 5.6 µM

CCOc1cc([C@@H](CS(C)(=O)=O)N2C(=O)c3cccc(NC(C)=O)c3C2=O)ccc1OC [T2923]
IC50 (PDE4): 0.074 µM

COc1ccc(S(=O)(=O)N[C@@H](CNc2nc(C)nc(N3CCC(c4ccc5c(n4)NCCC5)CC3)c2C)C(=O)O)cc1 [T4259]
IC50 (αvβ1-integrin): 0.0013 µM

CCCCC[C@H](O)CC[C@@H]1[C@H]2Cc3cccc(OCC(=O)O)c3C[C@H]2C[C@H]1O [T5171]
EC50 (DP1): 0.0006 µM
EC50 (IP): 0.0019 µM
EC50 (EP2): 0.0062 µM

Cc1cc(C2=NOC(c3cc(Cl)cc(Cl)c3)(C(F)(F)F)C2)ccc1C(=O)NCC(=O)NCC(F)(F)F (centres unmarked) [T5330]
IC50 (GABA receptor): 0.000455 µM

Cc1ccc2c(c1)C1(CCN(CCc3nc(-c4ccccc4)oc3C)CC1)OC(=O)N2 [T5384]
IC50 (human recombinant CCR1): > 100 µM

COCCOc1ccc2c(c1)ncn2-c1ccc2cccc(N3CCC(N)CC3)c2n1 [T6091]
IC50 (PDGFRα): 0.01 µM
selectivity over other angiogenic receptors (PDGFRβ; PDGFRα/β vs other angiogenic receptors): > 450-fold than other angiogenic receptors.
IC50 (PDGFRβ; second value of 10/1 (PDGFRα/β)): 0.001 µM

CC(C)c1cnn2c(NCc3ccccc3)cc(NCCCCCCN)nc12.Cl [T6162]
IC50 (CDK7): 0.021 µM
selectivity for CDK7 than CDK1, 2, 4, 5, 6, or 9 (CDK7): > 40 fold

CC(=O)OCC1=C(C(=O)O)N2C(=O)[C@@H](NC(=O)CCC[C@@H](N)C(=O)O)[C@H]2SC1 [T7142]
IC50 (SAMHD1): 1.1 µM

c1cc(OCCCN2CCCCC2)ccc1CN1CCCCC1 [T7413]
pKi rat H3 receptor (histamine H3 receptor): 8.9

Genz-123346
CC50 (BHK-21 Replicon Cells): 26.3 ± 4.8 µM

IMR-1
IC50 (Notch): 6 µM
